According to patent US9944645B2, “Imidazotriazines and imidazopyrimidines as kinase inhibitors” (Incyte Holdings Corporation, priority 2006, dated 2018):

What follows are compounds tested against c-Met kinase (h-Met; histidine-tagged c-Met catalytic domain fusion protein) (Homo sapiens (Human), UniProt P08581) (assay: In Vitro c-Met Kinase Enzyme Assays). Settings: phosphorylation of poly Glu-Tyr, 5 μM ATP, 25 minutes at 30° C.
Assay type: biochemical
Procedure: Compounds were screened in vitro for their ability to inhibit c-Met kinase activity. […] Briefly, histidine-tagged c-Met catalytic domain fusion protein (Invitrogen, #PV3143) was used for the assay. […] The reaction lasted for 25 minutes at 30° C. After the reaction was completed, the contents of the plates was discarded. Plates were then washed with TBS-T (250 μL/well, 5×) and then blocked with TBS-T containing 1% BSA for 2 hours. The contents of the plates was discarded, and 100 μL (per well) of peroxidase-labeled anti-phospho-tyrosine antibody (Sigma, #A5964) diluted (1:60,000) in 1% BSA containing TBS-T were then added and incubated for 1 hour. Plates were washed with TBS-T ([…], 5×) and followed by the color reaction using 100 μL (1:1 mixture) of H2O2 and tetramethylbenzidine (R&D Systems, #DY999). The reaction was stopped in minutes with 100 μL of 2 N H2SO4. The optical density was measured immediately using a microplate reader at 450 nm with wavelength correction at 540 nm. IC50 values were calculated with the GraphPad Prism software. The linear range (i.e., the time period over which the rate remained equivalent to the initial rate) was determined for the kinase and IC50 determinations were performed within this range.

Chain of c-Met kinase (h-Met; histidine-tagged c-Met catalytic domain fusion protein) (P08581 1078-1345): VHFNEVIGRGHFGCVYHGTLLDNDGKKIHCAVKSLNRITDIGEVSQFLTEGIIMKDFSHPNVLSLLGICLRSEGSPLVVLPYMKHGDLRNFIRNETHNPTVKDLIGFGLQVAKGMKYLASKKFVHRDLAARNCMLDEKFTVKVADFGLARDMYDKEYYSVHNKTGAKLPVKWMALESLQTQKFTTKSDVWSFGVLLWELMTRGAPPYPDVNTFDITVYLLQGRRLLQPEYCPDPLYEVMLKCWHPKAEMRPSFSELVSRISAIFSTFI

SMILES	IC50 [µM]
CC(=O)N1CC=C(c2ccc(-c3cnc4ncc(C5(c6ccc7ncccc7c6)CC5)n4n3)cc2)CC1 [Example 96, 6-(1-{2-[4-(1-Acetyl-1,2,3,6-tetrahydropyridin-4-yl)phenyl]imidazo[1,2-b][1,2,4]triazin-7-yl}cyclopropyl)quinoline]	< 0.5
CCNC(=O)Nc1cccc(Cc2cnc3ncc(-c4ccc(Br)c(F)c4)nn23)c1 [Example 192, N-(3-[2-(4-Bromo-3-fluorophenyl)imidazo[1,2-b][1,2,4]triazin-7-yl]methylphenyl)-N′-ethylurea]	< 0.5
COc1ccc(C2(c3cnc4ncc(-c5ccc(F)cc5)cn34)CC2)cc1 [Example 5, 6-(4-Fluorophenyl)-3-(1-(4-methoxyphenyl)cyclopropyl)imidazo[1,2-a]pyrimidine]	< 0.5
COCC1(NC(=O)c2ccc(-c3cnc4ncc(Cc5ccc6ncccc6c5)n4n3)cc2F)CCC1 [Example 144, 2-Fluoro-N-[1-(methoxymethyl)cyclobutyl]-4-[7-(quinolin-6-ylmethyl)imidazo[1,2-b][1,2,4]triazin-2-yl]benzamide]	< 0.5
CN(C)C(=O)c1cnn(-c2cnc3ncc(C4(c5ccc6ncccc6c5)CC4)n3c2)c1 [Example 24, N,N-Dimethyl-1-[3-(1-quinolin-6-ylcyclopropyl)imidazo[1,2-a]pyrimidin-6-yl]-1H-pyrazole-4-carboxamide]	< 0.5
CCN1Cc2cc(-c3cnc4ncc(C5(c6ccc7ncccc7c6)CC5)n4c3)ccc2C1=O [Example 183, 2-Ethyl-5-[3-(1-quinolin-6-ylcyclopropyl)imidazo[1,2-a]pyrimidin-6-yl]isoindolin-1-one]	< 0.5
CNC(=O)c1ccc(-c2cnc3ncc(Oc4ccc5ncccc5c4)n3c2)cc1Cl [Example 17, 2-chloro-N-methyl-4-[3-(quinolin-6-yloxy)imidazo[1,2-a]pyrimidin-6-yl]benzamide]	< 0.5
CN(C)C(=O)c1ccc(-c2ccc(-c3cnc4ncc(C5(c6ccc7ncccc7c6)CC5)n4n3)cc2)cn1 [Example 98, N,N-Dimethyl-5-{4-[7-(1-quinolin-6-ylcyclopropyl)imidazo[1,2-b][1,2,4]triazin-2-yl]phenyl}pyridine-2-carboxamide]	< 0.5
O=C(N[C@H]1CC[C@H](O)CC1)c1ccc(-c2cnc3ncc(C4(c5ccc6ncccc6c5)CC4)n3n2)cc1F [Example 100, 2-Fluoro-N-(trans-4-hydroxycyclohexyl)-4-[7-(1-quinolin-6-ylcyclopropyl)imidazo[1,2-b][1,2,4]triazin-2-yl]benzamide]	< 0.5
CNC(=O)[C@@H](CC(C)C)NC(=O)c1ccc(-c2cnc3ncc(Cc4ccc5ncccc5c4)n3n2)cc1F [Example 135, 2-Fluoro-N-{(1R)-3-methyl-1-[(methylamino)carbonyl]butyl}-4-[7-(quinolin-6-ylmethyl)imidazo[1,2-b][1,2,4]triazin-2-yl]benzamide]	< 0.5
CCOC(=O)N1CCC(n2cc(-c3cnc4ncc(C5(c6ccc7ncccc7c6)CC5)n4c3)cn2)CC1 [Example 83, Ethyl 4-{4-[3-(1-quinolin-6-ylcyclopropyl)imidazo[1,2-a]pyrimidin-6-yl]-1H-pyrazol-1-yl}piperidine-1-carboxylate]	< 0.5
CC(c1ccc2ncccc2c1)c1cnc2ncc(-c3ccc(C(=O)NC4CC4)c(F)c3)nn12 (stereo not shown) [Example 161, N-Cyclopropyl-2-fluoro-4-[7-(1-quinolin-6-ylethyl)imidazo[1,2-b][1,2,4]triazin-2-yl]benzamide]	< 0.5
CNC(=O)[C@@H](NC(=O)c1ccc(-c2cnc3ncc(Cc4ccc5ncccc5c4)n3n2)cc1F)C(C)(C)C [Example 131, N-(1S)-2,2-Dimethyl-1-[(methylamino)carbonyl]propyl-2-fluoro-4-[7-(quinolin-6-ylmethyl)imidazo[1,2-b][1,2,4]triazin-2-yl]benzamide]	< 0.5
CC(C)(C)[C@H](NC(=O)c1ccc(-c2cnc3ncc(C4(c5ccc6ncccc6c5)CC4)n3c2)cn1)C(=O)NC1CC1 [Example 60, N-(1S)-1-[(Cyclopropylamino)carbonyl]-2,2-dimethylpropyl-5-[3-(1-quinolin-6-ylcyclopropyl)imidazo[1,2-a]pyrimidin-6-yl]pyridine-2-carboxamide]	< 0.5
O=C(NC1(CO)CCCC1)c1ccc(-c2cnc3ncc(Cc4ccc5ncccc5c4)n3n2)cc1F [Example 158, 2-Fluoro-N-[1-(hydroxymethyl)cyclopentyl]-4-[7-(quinolin-6-ylmethyl)imidazo[1,2-b][1,2,4]triazin-2-yl]benzamide]	< 0.5
COc1ccc(Oc2cnc3ncc(-n4cc(C)cn4)cn23)cc1 [Example 15, 3-(4-Methoxyphenoxy)-6-(4-methyl-1H-pyrazol-1-yl)imidazo[1,2-a]pyrimidine]	< 0.5

SMILES	IC50 [µM]
CC(NC(=O)c1ccc(-c2cnc3ncc(C4(c5ccc6ncccc6c5)CC4)n3c2)cc1)c1ccccn1 (stereo not shown) [Example 34, N-(1-Pyridin-2-ylethyl)-4-[3-(1-quinolin-6-ylcyclopropyl)imidazo[1,2-a]pyrimidin-6-yl]benzamide]	< 0.5
COC(=O)N1CCC(CC#N)(n2cc(-c3cnc4ncc(Cc5ccc6ncccc6c5)n4n3)cn2)CC1 [Example 203, Methyl 4-(cyanomethyl)-4-{4-[7-(quinolin-6-ylmethyl)imidazo[1,2-b][1,2,4]triazin-2-yl]-1H-pyrazol-1-yl}piperidine-1-carboxylate]	< 0.5
COC[C@@H](NC(=O)c1ccc(-c2cnc3ncc(C4(c5ccc6ncccc6c5)CC4)n3c2)cc1F)C(C)C [Example 171, 2-Fluoro-N-[(1S)-1-(methoxymethyl)-2-methylpropyl]-4-[3-(1-quinolin-6-ylcyclopropyl)imidazo[1,2-a]pyrimidin-6-yl]benzamide]	< 0.5
CN(C)C(=O)C(O)c1ccc(-c2cnc3ncc(C4(c5ccc6ncccc6c5)CC4)n3c2)cc1F (stereo not shown) [Example 191, 2-{2-fluoro-4-[3-(1-quinolin-6-ylcyclopropyl)imidazo[1,2-a]pyrimidin-6-yl]phenyl}-2-hydroxy-N,N-dimethylacetamide]	< 0.5
NC(=O)c1ccc(-c2cnc3ncc(Cc4ccc5ncccc5c4)n3n2)cc1F [Example 127, 2-Fluoro-4-[7-(quinolin-6-ylmethyl)imidazo[1,2-b][1,2,4]triazin-2-yl]benzamide]	< 0.5
COCC(C)N1Cc2cc(-c3cnc4ncc(C5(c6ccc7ncccc7c6)CC5)n4c3)ccc2C1=O (stereo not shown) [Example 184, 2-(2-Methoxy-1-methylethyl)-5-[3-(1-quinolin-6-ylcyclopropyl)imidazo[1,2-a]pyrimidin-6-yl]isoindolin-1-one]	< 0.5
CN(C)C(=O)Cn1cc(-c2ccc(-c3cnc4ncc(C5(c6ccc7ncccc7c6)CC5)n4c3)cc2F)cn1 [Example 84, 2-(4-{2-Fluoro-4-[3-(1-quinolin-6-ylcyclopropyl)imidazo[1,2-a]pyrimidin-6-yl]phenyl}-1H-pyrazol-1-yl)-N,N-dimethylacetamide]	< 0.5
CNC(=O)c1ccc(-c2cnc3ncc(Sc4ccc(OC)cc4)n3c2)cc1F [Example 9, 2-Fluoro-4-(3-[(4-methoxyphenyl)thio]imidazo[1,2-a]pyrimidin-6-yl)-N-methylbenzamide]	< 0.5
O=C(NC1CCN(c2ccccn2)C1)c1ccc(-c2cnc3ncc(C4(c5ccc6ncccc6c5)CC4)n3c2)cc1Cl (stereo not shown) [Example 179, 2-Chloro-N-(1-pyridin-2-ylpyrrolidin-3-yl)-4-[3-(1-quinolin-6-ylcyclopropyl)imidazo[1,2-a]pyrimidin-6-yl]benzamide]	< 0.5
O=C(NC1CC1)c1cccc(-c2cnc3ncc(C4(c5ccc6ncccc6c5)CC4)n3c2)c1 [Example 46, N-Cyclopropyl-3-[3-(1-quinolin-6-ylcyclopropyl)imidazo[1,2-a]pyrimidin-6-yl]benzamide]	< 0.5
O=C(NC1CC1)c1ccc(-c2cnc3ncc(C4(c5ccc6ncccc6c5)CC4)n3c2)cc1Cl [Example 175, 2-Chloro-N-cyclopropyl-4-[3-(1-quinolin-6-ylcyclopropyl)imidazo[1,2-a]pyrimidin-6-yl]benzamide]	< 0.5
CC(C)[C@H](NC(=O)c1ccc(-c2cnc3ncc(C4(c5ccc6ncccc6c5)CC4)n3c2)cc1)C(=O)N(C)C [Example 56, N-(1S)-1-[(Dimethylamino)carbonyl]-2-methylpropyl-4-[3-(1-quinolin-6-ylcyclopropyl)imidazo[1,2-a]pyrimidin-6-yl]benzamide]	< 0.5
O=C(NC1CC1)c1ccc(-c2cnc3ncc(C4(c5ccc6ncccc6c5)CC4)n3c2)cc1F [Example 170, N-Cyclopropyl-2-fluoro-4-[3-(1-quinolin-6-ylcyclopropyl)imidazo[1,2-a]pyrimidin-6-yl]benzamide]	< 0.5
CNC(=O)c1ccc(-c2cnc3ncc(Cc4ccc5nccnc5c4)n3n2)cc1F [Example 71, 2-Fluoro-N-methyl-4-[7-(quinoxalin-6-ylmethyl)imidazo[1,2-b][1,2,4]triazin-2-yl]benzamide]	< 0.5
CCOC(=O)N1CCC(CC#N)(n2cc(-c3cnc4ncc(Cc5ccc6ncccc6c5)n4n3)cn2)CC1 [Example 204, Ethyl 4-(cyanomethyl)-4-{4-[7-(quinolin-6-ylmethyl)imidazo[1,2-b][1,2,4]triazin-2-yl]-1H-pyrazol-1-yl}piperidine-1-carboxylate]	< 0.5
